Results reported in patent US6737383B1, “Herbicidal oxadiazolidines” (priority 1999, dated 2004).

Experiments:
wild oat = test: Test B pre/postemergence wild oat; format: in vivo, Avena fatua
How it was run: (§1)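 Test chemicals in a non-phytotoxic solvent mixture with surfactant were sprayed preemergence onto planted seeds and postemergence onto plants 2 to 18 cm tall (1- to 4-leaf stage). After twelve to sixteen days in a greenhouse, injury was visually rated against untreated controls from 0 (no effect) to 10 (complete control).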

rape = test: Test B pre/postemergence rape; format: in vivo, Brassica napus
How it was run: as §1

giant foxtail = test: Test B pre/postemergence giant foxtail; format: in vivo, Setaria faberii
How it was run: as §1

morningglory = test: Test B pre/postemergence morningglory; format: in vivo, Ipomoea hederacea
How it was run: as §1

corn = test: Test B pre/postemergence corn; format: in vivo, Zea mays
How it was run: as §1

surinam grass = test: Test B pre/postemergence surinam grass; format: in vivo, Brachiaria decumbens
How it was run: as §1

bedstraw = test: Test B pre/postemergence bedstraw; format: in vivo, Galium aparine
How it was run: as §1

rice = test: Test B flood test rice; format: in vivo, Oryza sativa
How it was run: (§2)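 Read-out is a visual response score from 0 (no effect) to 10 (complete control), assigned by comparison with untreated controls. Treatment was applied at the 2-leaf stage, and plants stayed in the greenhouse for twelve to sixteen days before scoring.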

velvetleaf = test: Test B pre/postemergence velvetleaf; format: in vivo, Abutilon theophrasti
How it was run: as §1

cocklebur = test: Test B pre/postemergence cocklebur; format: in vivo, Xanthium strumarium
How it was run: as §1

pigweed = test: Test B pre/postemergence pigweed; format: in vivo, Amaranthus retroflexus
How it was run: as §1

blackgrass = test: Test B pre/postemergence blackgrass; format: in vivo, Alopecurus myosuroides
How it was run: as §1

smallflower flatsedge = test: Test B flood test smallflower flatsedge; format: in vivo, Cyperus difformis
How it was run: as §2

wheat = test: Test B pre/postemergence wheat; format: in vivo, Triticum aestivum
How it was run: as §1

sugar beet = test: Test B pre/postemergence sugar beet; format: in vivo, Beta vulgaris
How it was run: as §1

soybean = test: Test B pre/postemergence soybean; format: in vivo, Glycine max
How it was run: as §1

[1] = Preemergence, Rate 62 g/ha, scale of 0 to 10 where 0 is no effect and 10 is complete control
[2] = Preemergence, Rate 250 g/ha, scale of 0 to 10 where 0 is no effect and 10 is complete control
[3] = Preemergence, Rate 500 g/ha, scale of 0 to 10 where 0 is no effect and 10 is complete control
[4] = Rate 62 g/ha, Postemergence, scale 0 to 10 (0 no effect, 10 complete control)
[5] = Rate 125 g/ha, Postemergence, scale of 0 to 10 where 0 is no effect and 10 is complete control
[6] = Rate 250 g/ha, Postemergence, scale of 0 to 10 where 0 is no effect and 10 is complete control
[7] = Rate 500 g/ha, Postemergence, scale 0 to 10, 0 no effect, 10 complete control
[8] = Rate 62 g/ha, headed Pre-emergence (flood test species), scale 0 to 10 (0 no effect, 10 complete control)
[9] = Rate 125 g/ha, Pre-emergence, flood test species, scale 0 to 10 where 0 is no effect and 10 is complete control
[10] = Rate 250 g/ha, Pre-emergence, flood-test species, scale 0 to 10, 0 is no effect, 10 is complete control
[11] = Rate 500 g/ha, Pre-emergence, flood test species, scale 0 to 10 (0 no effect, 10 complete control)

CC(C)N(C(=O)n1oc(=O)n(CCCN(C)C)c1=O)c1ccc(F)cc1 [Compound 323]
1: Soybean plant response rating (soybean; [5])
3: Plant response rating, Morningglory (morningglory; [7])
2: Giant foxtail plant response rating (giant foxtail; [3]) | Plant response rating, Morningglory (morningglory; [6]) | Plant response rating, Soybean (soybean; [6]) | Plant response rating, Soybean (soybean; [7])
0: Wild oats plant response rating (wild oat; [1]) | Wild oats plant response rating (0 to 10 scale) (wild oat; Preemergence, Rate 125 g/ha) | Wild oats plant response rating (wild oat; [2]) | Wild oats plant response rating (wild oat; [3]) | Wild oats plant response rating (wild oat; [4]) | Wild oats plant response rating (wild oat; [5]) | Plant response rating, Wild oats (wild oat; [6]) | Plant response rating, Wild oats (wild oat; [7]) | Rape plant response rating (rape; [1]) | Rape plant response rating (0 to 10 scale) (rape; Preemergence, Rate 125 g/ha) | Rape plant response rating (rape; [2]) | Rape plant response rating (rape; [3]) | Rape plant response rating (rape; [4]) | Rape plant response rating (rape; [5]) | Plant response rating, Rape (rape; [6]) | Plant response rating, Rape (rape; [7]) | Giant foxtail plant response rating (giant foxtail; [1]) | Giant foxtail plant response rating (0 to 10 scale) (giant foxtail; Preemergence, Rate 125 g/ha) | Giant foxtail plant response rating (giant foxtail; [2]) | Giant foxtail plant response rating (giant foxtail; [4]) | Giant foxtail plant response rating (giant foxtail; [5]) | Plant response rating, Giant foxtail (giant foxtail; [6]) | Plant response rating, Giant foxtail (giant foxtail; [7]) | Morningglory plant response rating (morningglory; [1]) | Morningglory plant response rating (0 to 10 scale) (morningglory; Preemergence, Rate 125 g/ha) | Morningglory plant response rating (morningglory; [2]) | Morningglory plant response rating (morningglory; [3]) | Morningglory plant response rating (morningglory; [4]) | Morningglory plant response rating (morningglory; [5]) | Corn plant response rating (corn; [1]) | Corn plant response rating (0 to 10 scale) (corn; Preemergence, Rate 125 g/ha) | Corn plant response rating (corn; [2]) | Corn plant response rating (corn; [3]) | Corn plant response rating (corn; [4]) | Corn plant response rating (corn; [5]) | Plant response rating, Corn (corn; [6]) | Plant response rating, Corn (corn; [7]) | B. signalgrass plant response rating (surinam grass; [1]) | B. signalgrass plant response rating (0 to 10 scale, 0 is no effect, 10 is complete control) (surinam grass; Preemergence, Rate 125 g/ha) | B. signalgrass plant response rating (surinam grass; [2]) | B. signalgrass plant response rating (surinam grass; [3]) | B. signalgrass plant response rating (surinam grass; [4]) | B. signalgrass plant response rating (surinam grass; [5]) | Plant response rating, B. signalgrass (surinam grass; [6]) | Plant response rating, B. signalgrass (surinam grass; [7]) | Bedstraw plant response rating (bedstraw; [1]) | Bedstraw plant response rating (0 to 10 scale) (bedstraw; Preemergence, Rate 125 g/ha) | Bedstraw plant response rating (bedstraw; [2]) | Bedstraw plant response rating (bedstraw; [4]) | Bedstraw plant response rating (bedstraw; [5]) | Rice plant response rating (rice; [8]) | Rice plant response rating (rice; [9]) | Rice plant response rating (rice; [10]) | Rice plant response rating (rice; [11]) | Velvetleaf plant response rating (velvetleaf; [1]) | Velvetleaf plant response rating (0 to 10 scale) (velvetleaf; Preemergence, Rate 125 g/ha) | Velvetleaf plant response rating (velvetleaf; [2]) | Velvetleaf plant response rating (velvetleaf; [3]) | Velvetleaf plant response rating (velvetleaf; [4]) | Velvetleaf plant response rating (velvetleaf; [5]) | Plant response rating, Velvetleaf (velvetleaf; [6]) | Plant response rating, Velvetleaf (velvetleaf; [7]) | Cocklebur plant response rating (cocklebur; [1]) | Cocklebur plant response rating (0 to 10 scale) (cocklebur; Preemergence, Rate 125 g/ha) | Cocklebur plant response rating (cocklebur; [2]) | Cocklebur plant response rating (cocklebur; [3]) | Cocklebur plant response rating (cocklebur; [4]) | Cocklebur plant response rating (cocklebur; [5]) | Plant response rating, Cocklebur (cocklebur; [6]) | Plant response rating, Cocklebur (cocklebur; [7]) | Redroot pigweed plant response rating (pigweed; [1]) | Redroot pigweed plant response rating (0 to 10 scale) (pigweed; Preemergence, Rate 125 g/ha) | Redroot pigweed plant response rating (pigweed; [2]) | Redroot pigweed plant response rating (pigweed; [3]) | Redroot pigweed plant response rating (pigweed; [4]) | Redroot pigweed plant response rating (pigweed; [5]) | Plant response rating, Redroot pigweed (pigweed; [6]) | Plant response rating, Redroot pigweed (pigweed; [7]) | Blackgrass plant response rating (blackgrass; [1]) | Blackgrass plant response rating (0 to 10 scale) (blackgrass; Preemergence, Rate 125 g/ha) | Blackgrass plant response rating (blackgrass; [2]) | Blackgrass plant response rating (blackgrass; [3]) | Blackgrass plant response rating (blackgrass; [4]) | Blackgrass plant response rating (blackgrass; [5]) | Plant response rating, Blackgrass (blackgrass; [6]) | Plant response rating, Blackgrass (blackgrass; [7]) | S. Flatsedge plant response rating (smallflower flatsedge; [8]) | S. Flatsedge plant response rating (smallflower flatsedge; [9]) | S. Flatsedge plant response rating (smallflower flatsedge; [10]) | S. Flatsedge plant response rating (smallflower flatsedge; [11]) | Wheat plant response rating (wheat; [1]) | Wheat plant response rating (0 to 10 scale) (wheat; Preemergence, Rate 125 g/ha) | Wheat plant response rating (wheat; [2]) | Wheat plant response rating (wheat; [3]) | Wheat plant response rating (wheat; [4]) | Wheat plant response rating (wheat; [5]) | Plant response rating, Wheat (wheat; [6]) | Plant response rating, Wheat (wheat; [7]) | Sugarbeets plant response rating (sugar beet; [1]) | Sugarbeets plant response rating (0 to 10 scale) (sugar beet; Preemergence, Rate 125 g/ha) | Sugarbeets plant response rating (sugar beet; [2]) | Sugarbeets plant response rating (sugar beet; [3]) | Sugarbeets plant response rating (sugar beet; [4]) | Sugarbeets plant response rating (sugar beet; [5]) | Plant response rating, Sugarbeets (sugar beet; [6]) | Plant response rating, Sugarbeets (sugar beet; [7]) | Soybean plant response rating (soybean; [1]) | Soybean plant response rating (0 to 10 scale) (soybean; Preemergence, Rate 125 g/ha) | Soybean plant response rating (soybean; [2]) | Soybean plant response rating (soybean; [3]) | Soybean plant response rating (soybean; [4])
